{"source": "patent US12631623B2", "about": "“Heart tissue model” (IMBA—INSTITUT FÜR MOLEKULARE BIOTECHNOLOGIE GMBH, priority 2020, dated 2026)", "molecules": {"B1": {"name": "BMP4: bone morphogenetic protein 4 (protein, UniProt P12644 293-408, looked up)", "Bone morphogenetic protein 4": "SPKHHSQRARKKNKNCRRHSLYVDFSDVGWNDWIVAPPGYQAFYCHGDCPFPLADHLNSTNHAIVQTLVNSVNSSIPKACCVPTELSAISMLYLDEYDKVVLKNYQEMVVEGCGCR"}, "B2": {"name": "Noggin (protein, UniProt Q13253 28-232, looked up)", "Noggin": "QHYLHIRPAPSDNLPLVDLIEHPDPIFDPKEKDLNETLLRSLLGGHYDPGFMATSPPEDRPGGGGGAAGGAEDLAELDQLLRQRPSGAMPSEIKGLEFSEGLAQGKKQRLSKKLRRKLQMWLWSQTFCPVLYAWNDLGSRFWPRYVKVGSCFSKRSCSVPEGMVCKPSKSVHLTVLRWRCQRRGGQRCGWIPIQYPIISECKCSC"}}, "key": {"cardioids (hPSC-derived) [1]": {"test_system": "cardioids (hPSC-derived)", "experiment": "High-throughput imaging of cardioid diameter and cavity expansion at the cardiac mesoderm stage (day 3.5)", "assay_type": "cell-based, human", "conditions": "for cardiac mesoderm density / cell number per cardioid: BMP inhibition with Noggin or LDN193189, initial two days of cardiac mesoderm stage; for cavity expansion / cavity morphogenesis / organoid/cardioid diameter (size): Noggin 100 ng/ml or LDN193189 0.2 μM, initial two days of cardiac mesoderm stage", "method": "(§1) Image acquisition and analysis—Fixed whole mounts and sections were imaged with point scanning (upright Zeiss LSM800 Axio Imager with an Apochromat 20× objective lens at 1× magnification) and spinning disk confocal microscopes (Olympus spinning disk system based on a IX3 Series (IX83) inverted microscope, equipped with a Yokogawa W1 spinning disc), or a widefield microscope (Zeiss Axio Imager 2, Axio Vert A1, Panoramic FLASH 250 II System). Live imaging experiments were performed using a Zeiss Celldiscoverer 7 or above-mentioned spinning disk microscope. For high-throughput imaging and analysis, images were taken with a Celigo Imaging Cytometer microscope (Nexcelom Biosciences, LLC) and analyzed with custom-made scripts written for the FIJI software. Sections for transmission electron microscopy were examined with aFEI Morgagni 268D TEM (FEI, Eindhoven, The Netherlands) operated at 80 kV. Images were acquired using an 11 megapixel Morada CCD camera (Olympus-SIS).\nWe next used cardioids to dissect how signaling controls intrinsic morphogenesis and patterning during cardioid specification. To quantify phenotypes with high statistical power, we combined the high-throughput cardioid platform with a custom-made semi-automated imaging/analysis FIJI-pipeline. Using this setup, we examined which signals control cardioid self-organization and at what stage of mesodermal specification they act. We first systematically tested the effects of key mesoderm and cardiac mesoderm signaling dosages (e. g. WNT, BMP) on cardiac cavity self-morphogenesis. […] An intermediate WNT dosage promoted both cavity morphogenesis and CM specification. The optimal WNT activation range was consistent for each hPSC line but differed across lines, consistent with numerous studies showing line-specific signaling responses. Importantly, the highest WNT dosage promoted cavity formation without CM specification (FIG. 16A), highlighting a striking difference in signaling control of cell-fate specification versus morphogenesis."}, "[2]": {"test_system": "cardiac organoids (hPSC-derived)", "experiment": "Reporter imaging / immunostaining of cardiomyocyte and endothelial cell organisation in cardiac organoids", "assay_type": "cell-based, human", "conditions": "for location of endothelial cell layer: with VEGF; for organization of cardiomyocytes and endothelial cells: Wnt-inhibitor during differentiation, CHIR99021 5 μM or 6 μM; for EC lining of cavity: VEGF(-A) added after CM specification stage; for separation of CM and EC layers: VEGF(-A) included at cardiac mesoderm stage", "method": "(§2) Immunostaining—Following fixation with 4% PFA (Sigma-Aldrich, #16005) specimens were washed twice in 1×PBS and the 3D constructs additionally once in PBS/Tween20 (0.1%, Sigma-Aldrich, #P1379) for at least 15 min each. Tissues were incubated in blocking solution consisting of PBS (Gibco, #14190094) with 4% goat (Bio-Rad Laboratories, #C07SA) or donkey serum (Bio-Rad Laboratories, #C06SB) and 0.2% Triton X-100 (Sigma-Aldrich, #T8787) for at least 15 minutes. The primary antibody was subsequently applied in above blocking buffer for 1-3 hours at room temperature or overnight at 4° C. in the case of the 2D samples and 2 days at 4° C. on a shaker for 3D samples. Following washing twice with PBS/Tween20, 3D tissues were incubated with the secondary antibody solution at 4° C. on a shaker for 2 more days while 2D samples were incubated up to 2 hours at room temperature. Following these washing steps and an additional PBS wash, tissues were ready for analysis or storage at 4° C. in PBS, while slides were mounted using fluorescence mounting medium (Dako Agilent Pathology Solutions, #S3023). 3D tissues were cleared with FocusClear (CellExplorer Labs, #FC-101) prior to imaging.\nas §1"}, "cardioids (hPSC-derived) [3]": {"test_system": "cardioids (hPSC-derived)", "experiment": "RNA-seq gene expression of cardioids induced with high vs low CHIR99021", "assay_type": "cell-based, human", "method": "RNA isolation and RNA-seq/Smart-Seq2/single-cell (sc)RNA-seq preparation—RNA was isolated with the RNeasy Mini Kit (Qiagen, #74104). Generation of the bulk RNA-seq libraries was performed according to the manufacturer's instructions with QuantSeq 3′ mRNA-Seq Library Prep Kit FWD (Lexogen GmbH, #015). After the preparation of the libraries, samples were checked for an adequate size distribution with a fragment analyzer (Advanced Analytical Technologies, Inc) and were submitted to the Vienna Biocenter Core Facilities (VBCF) Next-Generation-Sequencing (NGS) facility for sequencing. For Smart-Seq2 analysis, 400 cells were sorted into lysis buffer and stored at −80° C. until further processing. […]\nBioinformatic analysis—Trimming was performed for Smart-Seq2 experiments using trim-galore v0.5.0 and for QuantSeq 3′ mRNA-Seq experiments using BBDuk v38.06 (ref=polyA.fa.gz,truseq.fa.gz k=13 ktrim=r useshortkmers=t mink=5 qtrim=r trimq=10 minlength=20). Reads mapping to abundant sequences included in the iGenomes UCSC hg38 reference (human rDNA, human mitochondrial chromosome, phiX174 genome, adapter) were removed using bowtie2 v2.3.4.1 alignment. Remaining reads were analyzed using genome and UCSC gene annotation provided in the iGenomes UCSC hg38 bundle (support.illumina.com/sequencing/sequencingsoftware/igenome.html). […]"}, "hPSCs (WTC MYH10-GFP)": {"test_system": "hPSCs (WTC MYH10-GFP)", "experiment": "Mesoderm induction of hPSC aggregates (T / SOX2 staining)", "assay_type": "cell-based, human", "conditions": "8 uM CHIR99021, 40 h of mesoderm induction, 1000 hPSCs", "method": "as §2"}, "[4]": {"test_system": "cardiac organoids (hPSC-derived, WTC MYL7-GFP/CDH5-Tomato)", "experimental": "Generation of cardiac organoids with endothelial lining—Pluripotency maintenance medium was refreshed 6 h prior to seeding cells. Then, 2500-3000 hPSC were seeded into ultra-low cluster 96-well plates (Corning) in FLyAB(Ins) medium with CHIR (5-6 μM) and ROCKi (5 μM) for 36 h-40 h.\nIn order to stop endothelial cell differentiation, 100 nM sunitinib malate (Biovision, #1611) was added from the cardiac mesoderm stage (BFIIWPRa) onward.\nFlow cytometry—Cells were dissociated using the CM dissociation kit (Stem Cell Technologies, #05025). After centrifugation for 3 min at 130 g, cells were resuspended in 300 μl PBS supplemented with 0.5 mM EDTA (Biological Industries, #01-862-1B) and 10% FBS (PAA Laboratories, #A15-108). Cells were acquired with a FACS LSR Fortessa II (BD) and analysed with FlowJo V10 (FlowJo, LLC) software. FACS sorting was performed using a Sony SH800 Cell Sorter (Sony Biotechnology)."}, "[5]": {"test_system": "cardiac mesoderm cavity structures (cardioids)", "experiment": "Dextran incorporation assay in cardioids", "assay_type": "cell-based, human", "conditions": "low-molecular-weight (4 kDa) dextran, cardiac mesoderm stage", "method": "Dextran and Fluo-4 incorporation assays—A 4.4 kDa Dextran conjugated with TAMRA (Sigma Aldrich, T1037) was added to the cardioid culture between 64 h and 90 h. Cardioids were live imaged as cavities started to form. To image and analyze calcium-transients, 3D cardioids and 2D CM were loaded with Fluo-4 AM (Thermo Fisher Scientific, #F14217). After a 15-min incubation, cardioids were incubated for another 15 min in Tyrode's salt solution (Sigma Aldrich, #T2397). Subsequently, cardioids were imaged live and videos were analyzed with FIJI software (Schindelin et al., 2012, Nature Methods 9, 676-682) to acquire the signal intensity (F) of regions of interest and background (F0)."}, "[6]": {"conditions": "+Sunitinib (100 μM [sic]), end of differentiation day 7.5"}}, "note": "Entries after “also recorded” stand apart in the source; their conditions may differ."}
{"molecule": "Cc1c[nH]c(-c2cnc(NCCNc3ccc(C#N)cn3)nc2-c2ccc(Cl)cc2Cl)n1", "note": "[CHIR99021]", "values": [{"measurement": "cavity defect of HAND1 KO organoids", "setting": "cardioids (hPSC-derived) [1]; increased CHIR99021 during mesoderm induction, HAND1 KO (H9), d3.5", "value": "rescues cavity defect in HAND1 KO organoids"}, {"measurement": "cardioid diameter / lumen expansion as function of CHIR99021 dosage", "setting": "cardioids (hPSC-derived) [1]; range of CHIR99021 concentrations during mesoderm induction, day 3.5", "value": "dramatic effects on cardioid diameter; also recorded: striking effects on lumen expansion"}, {"measurement": "endothelial lining of cavities", "setting": "[2]; 4 uM CHIR99021 during induction, d27, WTC MYL7-GFP", "value": "lining of internal cavities by endothelial (CD31+) cells"}, {"measurement": "apoptosis (cleaved caspase 3 staining)", "setting": "[2]; 4 μM CHIR condition", "value": "increased levels inside the EC ring"}, {"measurement": "apoptosis (cleaved caspase 3 staining)", "setting": "[2]; 6 μM CHIR condition", "value": "low levels of apoptosis"}, {"measurement": "location of endothelial cell layer", "setting": "[2]; high WNT activity, 5-8 μM CHIR during mesoderm induction", "value": "compartment/lining around the cardiomyocytes"}, {"measurement": "location of endothelial cell layer", "setting": "[2]; lower WNT activity, 4 μM (1-4 μM) CHIR during mesoderm induction", "value": "inner ring of EC expressing CD31"}, {"measurement": "location of endothelial cell layer", "setting": "[2]; lower WNT activity, 4 μM (1-4 μM) CHIR during mesoderm induction, listed as CHIR", "value": "inside lining facing the cavity"}, {"measurement": "EC genes (PECAM1, CDH5, VEGFA, TAL1, LMO2, ETV2) expression", "setting": "cardioids (hPSC-derived) [3]; 4 μM CHIR99021 during mesoderm induction vs 8 μM", "value": "upregulated; also recorded: higher expression of EC-specifying genes"}, {"measurement": "BMP target genes (HAND1, IRX3, BMP4, BMP2, BMPR2) expression", "setting": "cardioids (hPSC-derived) [3]; 8 μM during mesoderm induction (cavity-forming conditions)", "value": "upregulated"}, {"measurement": "exit from pluripotency (T up, SOX2 down)", "setting": "hPSCs (WTC MYH10-GFP)", "value": "efficiently exited pluripotency"}]}
{"molecule": "Cc1ccc2nc(NC(=O)CSc3nc4c(c(=O)n3-c3ccccc3)SCC4)sc2c1", "note": "[IWP2]", "values": [{"measurement": "organization of cardiomyocytes and endothelial cells", "setting": "[2]", "value": "two-layered organization"}]}
{"molecule": "O=C(Nc1cccc2cccnc12)c1ccc(N2C(=O)[C@@H]3[C@H](C2=O)[C@@H]2C=C[C@H]3C2)cc1", "note": "[IWR-1]", "values": [{"measurement": "organization of cardiomyocytes and endothelial cells", "setting": "[2]", "value": "two-layered organization"}]}
{"molecule": "c1ccc2c(-c3cnn4cc(-c5ccc(N6CCNCC6)cc5)cnc34)ccnc2c1", "note": "[LDN193189]", "values": [{"measurement": "cardiac mesoderm density", "setting": "cardioids (hPSC-derived) [1]", "value": "denser cardiac mesoderm"}, {"measurement": "cell number per cardioid", "setting": "cardioids (hPSC-derived) [1]", "value": "remained stable"}, {"measurement": "cavity expansion / cavity morphogenesis", "setting": "cardioids (hPSC-derived) [1]", "value": "interfere with cavity expansion; also recorded: impaired cavity morphogenesis"}, {"measurement": "organoid/cardioid diameter (size)", "setting": "cardioids (hPSC-derived) [1]; day 3.5", "value": "significantly decreased diameter; also recorded: reduces cardioid diameter; also recorded: decreased cardioid size"}]}
{"molecule": "CCN(CC)CCNC(=O)c1c(C)[nH]c(/C=C2\\C(=O)Nc3ccc(F)cc32)c1C", "note": "[Sunitinib]", "values": [{"measurement": "MYL7-GFP expressing cardiomyocytes", "setting": "[4]; [6]", "value": 96, "unit": "%"}, {"measurement": "cells expressing the endothelial marker CDH5-Tomato", "setting": "[4]; [6]", "value": 3, "unit": "%"}, {"measurement": "cardiomyocytes in organoids", "setting": "[4]; Sunitinib 100 nM in the first 10 days of differentiation or longer", "value": "over 95%"}]}
{"molecule": "Oc1nc(-c2ccc(C(F)(F)F)cc2)nc2c1CSCC2", "note": "[XAV939]", "values": [{"measurement": "organization of cardiomyocytes and endothelial cells", "setting": "[2]", "value": "two-layered organization"}]}
{"molecule": "VEGF", "values": [{"measurement": "cell composition of cardioid-like structures", "setting": "[2]; VEGF during cardiac mesoderm stage, no WNT inhibition", "value": "containing only ECs and fibroblast-like cells without CMs; also recorded: contained primarily ECs and COL1A1^+ cells, without CMs"}, {"measurement": "EC lining of cavity", "setting": "[2]", "value": "occasionally led to partial EC lining of cavities but often also to ECs forming a partial outside layer"}, {"measurement": "EC lining of cavity", "setting": "[2]; listed as VEGF-A", "value": "occasionally observed formation of an EC layer lining the cardioid cavity"}, {"measurement": "separation of CM and EC layers", "setting": "[2]", "value": "separate into a CM and an EC layer with a space between them"}, {"measurement": "separation of CM and EC layers", "setting": "[2]; listed as VEGF-A", "value": "separated into CM and EC layers"}, {"measurement": "cardiomyocytes (MYL7+) in organoids", "setting": "[4]; VEGF 200 ng/ml at cardiac mesoderm stage, intermediate WNT activation", "value": "~41", "unit": "%"}, {"measurement": "endothelial cells (CDH5+) in organoids", "setting": "[4]; VEGF 200 ng/ml at cardiac mesoderm stage, intermediate WNT activation, listed as VEGF-A", "value": 53, "unit": "%"}]}
{"molecule": "dextran", "values": [{"measurement": "permeability of cavity structures", "setting": "[5]", "value": "impermeable"}, {"measurement": "permeability of cavity structures", "setting": "[5]; listed as dextrans", "value": "not permeable"}]}
{"molecule": "B1", "values": [{"measurement": "cavity expansion", "setting": "cardioids (hPSC-derived) [1]; BMP signalling dosage at cardiac mesoderm stage, higher levels of BMP4", "value": "drove cavity expansion"}]}
{"molecule": "B2", "values": [{"measurement": "cardiac mesoderm density", "setting": "cardioids (hPSC-derived) [1]", "value": "denser cardiac mesoderm"}, {"measurement": "cell number per cardioid", "setting": "cardioids (hPSC-derived) [1]", "value": "remained stable"}, {"measurement": "cavity expansion / cavity morphogenesis", "setting": "cardioids (hPSC-derived) [1]", "value": "interfere with cavity expansion; also recorded: heavily impaired cavity expansion; also recorded: impaired cavity morphogenesis"}, {"measurement": "organoid/cardioid diameter (size)", "setting": "cardioids (hPSC-derived) [1]; day 3.5", "value": "significantly decreased diameter; also recorded: reduces cardioid diameter; also recorded: decreased cardioid size"}]}
